Results taken from ChEMBL document CHEMBL3779887, “Robenidine Analogues as Gram-Positive Antibacterial Agents” (J Med Chem, 2016).
In brackets after ≈: the same amount, converted by molar mass. Activity calls are given as the source filed them. No cut-off for these calls is given here.

Key:
[1] = Half life of compound in mouse liver microsomes; format: ADME
[2] = test system: Enterococcus; assay: Antibacterial activity against vancomycin-resistant Enterococcus after 20 to 24 hrs; format: functional
[3] = test system: Staphylococcus aureus; assay: Antibacterial activity against methicillin-resistant Staphylococcus aureus after 20 to 24 hrs; format: functional
[4] = Half life of compound in human liver microsomes; format: ADME
[5] = Metabolic stability in human liver microsomes assessed as compound loss after 60 mins; format: ADME; details: read-out: Drug degradation
[6] = test system: Escherichia coli; assay: Antibacterial activity against Escherichia coli ATCC 25922 after 20 to 24 hrs; format: functional
[7] = Lipophilicity, logD of the compound at pH 3; format: physicochemical; details: buffer
[8] = Solubility of the compound at pH 6.5; format: physicochemical; details: buffer
[9] = Solubility of the compound at pH 2; format: physicochemical; details: buffer
[10] = Intrinsic clearance in mouse liver microsomes assessed per mg of protein; format: ADME; details: read-out: CLH
[11] = Lipophilicity, logD of the compound at pH 7.4; format: physicochemical; details: buffer
[12] = Intrinsic clearance in human liver microsomes assessed per mg of protein; format: ADME; details: read-out: CLH
[13] = test system: Staphylococcus aureus; assay: Antibacterial activity against methicillin-sensitive Staphylococcus aureus ATCC 29213 after 20 to 24 hrs in presence of 50% heat inactivated bovine serum; format: functional
[14] = test system: Staphylococcus aureus; assay: Antibacterial activity against methicillin-sensitive Staphylococcus aureus ATCC 25923 after 20 to 24 hrs; format: functional
[15] = test system: Staphylococcus aureus; assay: Bactericidal activity against Methicillin-sensitive Staphylococcus aureus ATCC 29213 assessed as log reduction in bacterial cell number at 4 times MIC after 24 hrs by time kill curve analysis; format: functional, organism-based
[16] = test system: Staphylococcus aureus; assay: Ratio of MBC for methicillin-sensitive Staphylococcus aureus ATCC 49775 to MIC90 for methicillin-sensitive Staphylococcus aureus ATCC 49775; format: functional
[17] = test system: Pseudomonas aeruginosa; assay: Ratio of MIC90 for Pseudomonas aeruginosa ATCC 27853 to MIC90 for Pseudomonas aeruginosa ATCC 27853 in presence of polymyxin B nonapeptide; format: functional
[18] = test system: Staphylococcus aureus; assay: Bactericidal activity against Methicillin-sensitive Staphylococcus aureus ATCC 29213 assessed as log reduction in bacterial cell number at MIC after 8 hrs by time kill curve analysis
[19] = test system: Staphylococcus aureus; assay: Bactericidal activity against methicillin-sensitive Staphylococcus aureus ATCC 49775 after 24 and 48 hrs; format: functional
[20] = test system: Staphylococcus aureus; assay: Antibacterial activity against methicillin-sensitive Staphylococcus aureus ATCC 29213 after 20 to 24 hrs in presence of 50% heat inactivated bovine serum
[21] = test system: Escherichia coli; assay: Ratio of MIC90 for Escherichia coli ATCC 25922 to MIC90 for Escherichia coli ATCC 25922 in presence of polymyxin B nonapeptide; format: functional
[22] = test system: Staphylococcus aureus; assay: Bactericidal activity against Methicillin-sensitive Staphylococcus aureus ATCC 29213 assessed as log reduction in bacterial cell number at 2 times MIC after 24 hrs by time kill curve analysis; format: functional, organism-based
[23] = test system: Staphylococcus aureus; assay: Bactericidal activity against Methicillin-sensitive Staphylococcus aureus ATCC 29213 assessed as log reduction in bacterial cell number at 8 times MIC after 24 hrs by time-kill curve analysis; format: functional, organism-based
[24] = test system: Staphylococcus aureus; assay: Bactericidal activity against methicillin-sensitive Staphylococcus aureus ATCC 29213 assessed as log reduction in bacterial cell number at MIC after 8 hrs by time-kill curve analysis; format: functional
[25] = Selectivity index, ratio of GI50 for human HEL299 cells to MIC50 for methicillin-sensitive Staphylococcus aureus clinical isolate; format: functional, HEL 299
[26] = test system: Staphylococcus aureus; assay: Bactericidal activity against […] Staphylococcus aureus clinical isolate USA300 assessed as log reduction in bacterial cell number at 8 times MIC after 24 hrs by time-kill curve analysis; format: functional, organism-based
[27] = Selectivity index, ratio of GI50 for human HepG2 cells to MIC50 for methicillin-resistant Staphylococcus aureus clinical isolate; format: functional
[28] = test system: Staphylococcus aureus; assay: Antibacterial activity against methicillin-sensitive Staphylococcus aureus ATCC 6538 after 20 to 24 hrs in presence of 50% heat inactivated bovine serum; format: functional
[29] = test system: Staphylococcus aureus; assay: Antibacterial activity against methicillin-resistant Staphylococcus aureus clinical isolate after 20 to 24 hrs; format: functional
[30] = test system: Staphylococcus aureus; assay: Bactericidal activity against […] Staphylococcus aureus clinical isolate USA300 assessed as log reduction in bacterial cell number at 4 times MIC after 24 hrs by time-kill curve analysis; format: functional, organism-based
[31] = test system: Staphylococcus aureus; assay: Antibacterial activity against methicillin-sensitive Staphylococcus aureus ATCC 49775 after 20 to 24 hrs in presence of 50% heat inactivated bovine serum; format: functional
[32] = test system: Staphylococcus aureus; assay: Ratio of MBC for methicillin-sensitive Staphylococcus aureus ATCC 25923 to MIC90 for methicillin-sensitive Staphylococcus aureus ATCC 25923; format: functional
[33] = Selectivity index, ratio of GI50 for human HepG2 cells to MIC50 for methicillin-sensitive Staphylococcus aureus clinical isolate; format: functional
[34] = test system: Staphylococcus aureus; assay: Bactericidal activity against methicillin-sensitive Staphylococcus aureus ATCC 25923 after 24 and 48 hrs; format: functional
[35] = test system: Staphylococcus aureus; assay: Antibacterial activity against methicillin-sensitive Staphylococcus aureus ATCC 29213 after 20 to 24 hrs; format: functional
[36] = Cytotoxicity against human HepG2 cells after 24 hrs by WST-1 based colorimetric assay; format: cell-based
[37] = test system: Staphylococcus aureus; assay: Bactericidal activity against methicillin-resistant Staphylococcus aureus clinical isolate after 24 and 48 hrs; format: functional
[38] = test system: Staphylococcus aureus; assay: Bactericidal activity against methicillin-sensitive Staphylococcus aureus clinical isolate USA300 assessed as log reduction in bacterial cell number at MIC after 8 hrs by time-kill curve analysis; format: functional
[39] = Selectivity index, ratio of GI50 for human HEL299 cells to MIC50 for methicillin-resistant Staphylococcus aureus clinical isolate; format: functional, HEL 299
[40] = test system: Staphylococcus aureus; assay: Bactericidal activity against […] Staphylococcus aureus clinical isolate USA300 assessed as log reduction in bacterial cell number at 4 times MIC after 8 hrs by time-kill curve analysis; format: functional
[41] = test system: Staphylococcus aureus; assay: Bactericidal activity against […] Staphylococcus aureus clinical isolate USA300 assessed as log reduction in bacterial cell number at MIC after 24 hrs by time-kill curve analysis; format: functional, organism-based
[42] = test system: Staphylococcus aureus; assay: Bactericidal activity against methicillin-sensitive Staphylococcus aureus ATCC 29213 assessed as log reduction in bacterial cell number at 2 times MIC after 8 hrs by time-kill curve analysis; format: functional
[43] = test system: Staphylococcus aureus; assay: Bactericidal activity against […] Staphylococcus aureus clinical isolate USA300 assessed as log reduction in bacterial cell number at 8 times MIC after 8 hrs by time-kill curve analysis; format: functional
[44] = test system: Staphylococcus aureus; assay: Antibacterial activity against methicillin-sensitive Staphylococcus aureus ATCC 49775 after 20 to 24 hrs; format: functional
[45] = test system: Staphylococcus aureus; assay: Bactericidal activity against methicillin-sensitive Staphylococcus aureus ATCC 29213 after 24 and 48 hrs; format: functional
[46] = test system: Staphylococcus aureus; assay: Antibacterial activity against Staphylococcus aureus ATCC 29213 after 20 to 24 hrs in presence of 2% heat inactivated bovine serum; format: functional
[47] = test system: Staphylococcus aureus; assay: Bactericidal activity against methicillin-sensitive Staphylococcus aureus ATCC 29213 assessed as log reduction in bacterial cell number at 8 times MIC after 8 hrs by time-kill curve analysis; format: functional
[48] = test system: Staphylococcus aureus; assay: Antibacterial activity against methicillin-sensitive Staphylococcus aureus ATCC 29213 after 20 to 24 hrs in presence of 50% heat inactivated bovine serum; remark: listed apart in the source
[49] = test system: Escherichia coli; assay: Antibacterial activity against Escherichia coli ATCC 25922 after 20 to 24 hrs in presence of polymyxin B nonapeptide; format: functional
[50] = test system: Staphylococcus aureus; assay: Bactericidal activity against […] Staphylococcus aureus clinical isolate USA300 assessed as log reduction in bacterial cell number at 2 times MIC after 24 hrs by time-kill curve analysis; format: functional, organism-based
[51] = test system: Staphylococcus aureus; assay: Ratio of MBC for methicillin-sensitive Staphylococcus aureus ATCC 29213 to MIC90 for methicillin-sensitive Staphylococcus aureus ATCC 29213; format: functional
[52] = test system: Staphylococcus aureus; assay: Bactericidal activity against […] Staphylococcus aureus clinical isolate USA300 assessed as log reduction in bacterial cell number at 2 times MIC after 8 hrs by time-kill curve analysis; format: functional
[53] = test system: Staphylococcus aureus; assay: Bactericidal activity against methicillin-sensitive Staphylococcus aureus ATCC 29213 assessed as log reduction in bacterial cell number at 4 times MIC after 8 hrs by time-kill curve analysis; format: functional
[54] = Toxicity in sheep erythrocytes assessed as hemolysis at 600 uM after 30 mins; format: cell-based, Ovis aries; details: erythrocyte, 0.5 h
[55] = test system: Staphylococcus aureus; assay: Bactericidal activity against methicillin-sensitive Staphylococcus aureus ATCC 6538 after 24 and 48 hrs; format: functional
[56] = Cytotoxicity against human HEL299 cells after 24 hrs by WST-1 based colorimetric assay; format: cell-based, HEL 299
[57] = test system: Pseudomonas aeruginosa; assay: Antibacterial activity against Pseudomonas aeruginosa ATCC 27853 after 20 to 24 hrs; format: functional
[58] = test system: Staphylococcus aureus; assay: Antibacterial activity against methicillin-sensitive Staphylococcus aureus ATCC 6538 after 20 to 24 hrs; format: functional
[59] = test system: Pseudomonas aeruginosa; assay: Antibacterial activity against Pseudomonas aeruginosa ATCC 27853 after 20 to 24 hrs in presence of polymyxin B nonapeptide; format: functional
[60] = test system: Staphylococcus aureus; assay: Ratio of MBC for methicillin-sensitive Staphylococcus aureus ATCC 6538 to MIC90 for methicillin-sensitive Staphylococcus aureus ATCC 6538; format: functional
[61] = Selectivity ratio of MIC for methicillin-resistant Staphylococcus aureus to MIC for vancomycin-resistant Enterococcus; format: functional

Question: Which results are given for `N=C(N/N=C(\CO)c1ccc(Cl)cc1)N/N=C(\CO)c1ccc(Cl)cc1`?
Answer: half-life [1]: 2.18 h; MIC [2]: 15.2 µM (≈ 5.99 µg/mL); MIC [3]: 20.3 µM (≈ 8 µg/mL); half-life [4]: > 4.12 h; metabolised at 1 h [5]: < 15%; Activity [6]: inactive; logD [7]: 3.2; solubility [8]: < 1.6 µg/mL; solubility [9]: 25 µg/mL (≈ 63.4 µM); microsomal CLint [10]: 13 µL/min/mg; logD [11]: 4; microsomal CLint [12]: < 7 µL/min/mg

Question: Which results are given for `C/C(=N\NC(=N)N/N=C(\C)c1ccc(Cl)cc1)c1ccc(Cl)cc1`?
Answer: MIC90 [13]: > 250 µM; MIC90 [14]: 1.3 µM (≈ 0.471 µg/mL); Activity [15]: inactive; MIC [2]: 3.8 µM (≈ 1.38 µg/mL); Ratio [16]: 1; Ratio [17]: 10; Activity [18]: inactive; MIC [3]: 7.5 µM (≈ 2.72 µg/mL); MBC [19]: 2.5 µM (≈ 0.906 µg/mL); MIC90 [20]: > 250 µM; Ratio [21]: 10; Activity [22]: inactive; Activity [23]: inactive; Activity [24]: >=4 log10CFU/ml; Selectivity Index [25]: 2; Activity [26]: inactive; Selectivity Index [27]: 2; MIC90 [28]: > 250 µM; MIC90 [29]: 1.3 µM (≈ 0.471 µg/mL); MIC90 [6]: > 250 µM; Activity [30]: inactive; MIC90 [31]: > 250 µM; Ratio [32]: 1; Selectivity Index [33]: 2; MBC [34]: 2.5 µM (≈ 0.906 µg/mL); MIC90 [35]: 1.3 µM (≈ 0.471 µg/mL); GI50 at 24 h [36]: 13.8 µM; MBC [37]: 2.5 µM (≈ 0.906 µg/mL); Activity [38]: >=4 log10CFU/ml; Selectivity Index [39]: 2; Activity [40]: >=4 log10CFU/ml; Activity [41]: inactive; Activity [42]: >=4 log10CFU/ml; Activity [43]: >=4 log10CFU/ml; MIC90 [44]: 1.3 µM (≈ 0.471 µg/mL); MBC [45]: 2.5 µM (≈ 0.906 µg/mL); MIC90 [46]: 10 µM; Activity [47]: >=4 log10CFU/ml; MIC90 [48]: > 250 µM; MIC90 [49]: 10 µM; Activity [50]: inactive; Ratio [51]: 1; Activity [52]: >=4 log10CFU/ml; Activity [53]: >=4 log10CFU/ml; Activity [54]: Non-toxic; MBC [55]: 2.5 µM (≈ 0.906 µg/mL); GI50 at 24 h [56]: 6.7 µM; MIC90 [57]: > 250 µM; MIC90 [58]: 1.3 µM (≈ 0.471 µg/mL); MIC90 [59]: 5 µM; Ratio [60]: 1

Question: For `N=C(N/N=C/c1cccc(Br)c1)N/N=C/c1cccc(Br)c1`, which MIC [2] is on record?
Answer: Its MIC is 15.4 µM (≈ 6.52 µg/mL).

Question: What about the MIC [3] of the same compound?
Answer: The MIC was over 400 µM.

Question: And the Selectivity ratio [61]?
Answer: Its Selectivity ratio is 10.

Question: And the MIC [6]?
Answer: The MIC was over 400 µM.

Question: And the MIC [57]?
Answer: The MIC was over 400 µM.
